# Assay results taken from PMC9221509, “Discovery of a Novel Antimicrobial Peptide, Temporin-PKE, from the Skin Secretion of Pelophylax kl. esculentus, and Evaluation of Its Structure-Activity Relationships” (Biomolecules, 2022).
# Read-outs that look alike come from different tables or passages of the source. Non-standard residues stand in square brackets, D forms with d. Residues, ends and D or L forms follow the SMILES beside them. No end group written: not given here.
# Experiments:
# [1] = system: S. aureus (ATCC 6538) biofilm; type: cell-based, Staphylococcus aureus; details: ATCC 6538, 24 h
# Procedure: (§1) The anti-biofilm activities of the peptides against S. aureus (ATCC 6538), MRSA (NCTC 12493), E. faecalis (NCTC 12697), E. coli (ATCC CRM 8739), K. pneumoniae (ATCC 43816), and P. aeruginosa (ATCC CRM 9027), were evaluated. For the MBIC assay, 99 µL of bacterial suspension (5 × 10^5 CFU/mL) was mixed with 1 µL of serial dilutions (from 100 µM to 51,200 µM) of temporin-PKE and its analogues in a 96-well plate, and the plate was incubated in a moist shaking incubator at a speed of 200 rpm at 37 °C for 24 h. For the MBEC assay, 100 µL of bacterial suspension (5 × 10^5 CFU/mL) in each well was seeded in a new 96-well plate, and the plate was put into the same shaking incubator for 24 h incubation to allow biofilm formation on the well. After biofilm formation, the biofilm in the plate was washed with PBS twice. The PBS was aspirated between washes to remove planktonic bacterial cells. The washed biofilm in each well was treated with 100 µL of serial dilutions (from 1 µM to 512 µM) of the test peptides. Then, the plate was incubated in the same shaking incubator for another 24 h. After being washed by PBS twice and fixed with methanol, the biofilm in each well was incubated with 100 µL of 0.1% crystal violet for 30 min, and the stained biofilm was dissolved in 100 µL of glacial acidic acid after drying. The solutions were transferred to a new microplate, and the absorbance of each well was measured using a microplate reader (EL808, Biolise BioTek, Winooski, VT, USA) set to 595 nm wavelength. The MBIC was the minimum concentration of the peptide showing no biofilm formation. The MBEC is the lowest concentration of the peptide capable of eradicating the mature biofilms, which had no biofilm in the well.
# MRSA (NCTC 12493) = type: cell-based, methicillin-resistant Staphylococcus aureus; details: NCTC 12493, 24 h
# Procedure: (§2) The antimicrobial activities of peptides were evaluated against the Gram-positive bacteria, S. aureus (ATCC 6538), methicillin-resistant Staphylococcus aureus (MRSA) (NCTC 12493), Enterococcus faecalis (E. faecalis) (NCTC 12697); the Gram-negative bacteria, E. coli (ATCC CRM 8739), Klebsiella pneumoniae (K. pneumoniae) (ATCC 43816), Pseudomonas aeruginosa (P. aeruginosa) (ATCC CRM 9027); and the yeast, Candida albicans (C. albicans) (ATCC CRM 10231). Clinical isolates of MRSA (B042 V2E1 A), E. coli (ATCC BAA-2340), K. pneumoniae (ATCC BAA-1705), and P. aeruginosa (B004 V2S2 B) were also used to determine their antimicrobial activities. The suspension of microorganisms in the logarithmic growth phase with a specific final density (Gram-negative and Gram-positive bacteria: 5 × 10^5 CFU/mL; yeast: 1 × 10^6 CFU/mL) was incubated with different peptide concentrations from 1 µM to 512 µM at 37 °C for 24 h. PBS was used as the negative control, and norfloxacin and amphotericin B were selected as the positive control for bacteria and yeast, respectively. Since the Norfloxacin had weak activities against P. aeruginosa (B004 V2S2 B) and K. pneumoniae (ATCC BAA 1705), gentamicin was used as the positive control for these two bacterial strains. The absorbance of each well was obtained using a microplate reader (EL808, Biolise BioTek, Winooski, VT, USA) set at 550 nm wavelength. The MIC value was the lowest concentration of a peptide that inhibits visible bacterial growth. Once the MIC values were determined, an aliquot from the bacterial culture exposed to the peptide at or above its MIC value was inoculated on a Mueller Hinton agar (MHA) and was incubated at 37 for 18 h. The MBC value was the lowest concentration of a peptide that kills 99.9% of bacteria.
# According to the procedures in a previous article, the analysis of the sensitivity of the peptides was determined by measuring MIC values in the presence of different types of salts and 10% fetal bovine serum. MRSA (NCTC 12493) and K. pneumoniae (ATCC 43816) were selected as the subjects of these assays. Various salts at different concentrations, including 150 mM NaCl, 4.5 mM KCl, 6 μM NH4Cl, 1 mM MgCl2, […], […], and 10% serum (Gibco, Auckland, New Zealand), were added to the MHB medium for the examination of the MIC values which were determined as described in Section 2.7.
# [2] = system: C. albicans (ATCC CRM 10231); experiment: organism not typed; type: cell-based, Candida albicans; details: for MBC: ATCC CRM 10231, 18 h; for MIC: ATCC CRM 10231, 24 h
# Procedure: as §2
# E. faecalis (NCTC 12697) = experiment: microbe, parasite or virus in culture; type: cell-based, Enterococcus faecalis; details: for MBC: NCTC 12697, 18 h; for MIC: NCTC 12697, 24 h
# Procedure: as §2
# [3] = system: E. faecalis (NCTC 12697) biofilm; type: cell-based, Enterococcus faecalis; details: NCTC 12697, 24 h
# Procedure: as §1
# E. coli (ATCC BAA-2340) = experiment: microbe, parasite or virus in culture; type: cell-based, Escherichia coli; details: for MBC: ATCC BAA-2340, 18 h; for MIC: ATCC BAA-2340, 24 h
# Procedure: as §2
# E. coli (ATCC CRM 8739) = experiment: microbe, parasite or virus in culture; type: cell-based, Escherichia coli; details: for MBC: ATCC CRM 8739, 18 h; for MIC: ATCC CRM 8739, 24 h
# Procedure: as §2
# horse red blood cells = type: cell-based
# Procedure: As a previous study described in detail, the haemolysis activity assays of peptides were conducted on defibrinated horse blood (TCS Biosciences Ltd., Buckingham, UK) with an erythrocyte suspension concentration of 2% (v/v). The 120 μL of peptide solution in a gradient concentration ranging from 1µM to 512 µM was mixed with the same volume of 2% horse red blood cell suspension, and the complex was incubated at 37 °C for 2 h. PBS and 0.1% Triton X-100 were chosen as the negative and positive control, respectively. After centrifugation at 900× g for 5 min, the absorbance of the supernatant was analysed using a microplate reader (EL808, Biolise BioTek, Winooski, VT, USA) set to a wavelength of 570 nm. The equation to calculate the haemolysis of the peptides is shown below: Haemolysis (%)=A−An/Ap−An×100% where A represents the absorbance of each treatment group, An represents the average absorbance of the negative control group, and Ap represents the average absorbance of the positive control group.
Compound,MBIC [1] [µM],MIC against MRSA in the presence of 4 µM FeCl3 (MRSA (NCTC 12493)) [µM],MIC against MRSA in the presence of 6 µM NH4Cl (MRSA (NCTC 12493)) [µM],MIC against MRSA in the presence of 8 µM ZnCl2 (MRSA (NCTC 12493)) [µM],MIC against MRSA in the presence of 1 mM MgCl2 (MRSA (NCTC 12493)) [µM],MIC against MRSA in the presence of 2 mM CaCl2 (MRSA (NCTC 12493)) [µM],MIC against MRSA in the presence of 4.5 mM KCl (MRSA (NCTC 12493)) [µM],MIC against MRSA in the presence of 150 mM NaCl (MRSA (NCTC 12493)) [µM],MIC against MRSA in the presence of 10% FBS (MRSA (NCTC 12493)) [µM],"MIC against MRSA, Negative (MRSA (NCTC 12493)) [µM]",MBC (E. faecalis (NCTC 12697)) [µM],MIC (E. faecalis (NCTC 12697)) [µM],MBIC [3] [µM],MBC (E. coli (ATCC BAA-2340); read-out: MBC) [µM],MIC (E. coli (ATCC BAA-2340); read-out: MIC) [µM],MBC (E. coli (ATCC CRM 8739)) [µM],MIC (E. coli (ATCC CRM 8739)) [µM],"HC50 (horse red blood cells; red cells of horse, 2 h) [µM]",MBC ([2]; read-out: MBC) [µM],MIC ([2]; read-out: MIC) [µM],also measured
FLPKIIGKLSSKLPKIF-NH2 [Temporin-PKE-4K],32,32,32,128,32,64,32,128,128,32,32,32,256,64,32,4,4,1671,–,–,MBC [2]: 64 µM; MIC [2]: 64 µM; HC50 (horse red blood cells): 1671 µM
FLPLIIGALSSLLPKIF-NH2 [Temporin-PKE],2,8,8,32,8,8,8,8,16,2,8,8,32,>512,>512,–,–,6.58,>512,>512,MBC (E. coli (ATCC CRM 8739); read-out: MBC): >512 µM; MIC (E. coli (ATCC CRM 8739); read-out: MIC): >512 µM; HC50 (horse red blood cells): 6.58 µM
CC[C@@H](C)[C@@H](NC(=O)[C@H](CCCCN)NC(=O)[C@@H]1CCCN1C(=O)[C@H](CC(C)C)NC(=O)[C@H](CC(C)C)NC(=O)[C@H](CO)NC(=O)[C@H](CO)NC(=O)[C@H](CC(C)C)NC(=O)[C@H](C)NC(=O)CNC(=O)[C@H](NC(=O)[C@H](NC(=O)[C@H](CC(C)C)NC(=O)[C@@H]1CCCN1C(=O)[C@H](CC(C)C)NC(=O)[C@@H](N)Cc1ccccc1)[C@H](C)CC)[C@H](C)CC)C(=O)N[C@@H](Cc1ccccc1)C(N)=O [Temporin-PKE-3i] (H-FLPL[dI][dI]GALSSLLPK[dI]F-NH2),64,128,256,512,256,256,512,512,512,64,128,128,128,>512,>512,–,–,64.0,256,–,MBC (E. coli (ATCC CRM 8739); read-out: MBC): >512 µM; MIC (E. coli (ATCC CRM 8739); read-out: MIC): >512 µM
FLPLIIGKLSSLLPKIF-NH2 [Temporin-PKE-2K],2,2,4,16,4,4,4,8,8,2,2,2,16,–,–,4,4,19.87,>512,>512,MBC (E. coli (ATCC BAA-2340)): 8 µM; MIC (E. coli (ATCC BAA-2340)): 8 µM; HC50 relative to that of temporin-PKE (horse red blood cells): 3 fold
CC[C@@H](C)[C@@H](NC(=O)[C@H](CCCCN)NC(=O)[C@@H]1CCCN1C(=O)[C@H](CC(C)C)NC(=O)[C@H](CC(C)C)NC(=O)[C@H](CO)NC(=O)[C@H](CO)NC(=O)[C@H](CC(C)C)NC(=O)[C@H](C)NC(=O)CNC(=O)[C@@H](NC(=O)[C@@H](NC(=O)[C@H](CC(C)C)NC(=O)[C@@H]1CCCN1C(=O)[C@H](CC(C)C)NC(=O)[C@@H](N)Cc1ccccc1)[C@@H](C)CC)[C@@H](C)CC)C(=O)N[C@@H](Cc1ccccc1)C(N)=O [Temporin-PKE-i] (H-FLPLIIGALSSLLPK[dI]F-NH2),2,2,–,16,–,4,–,4,8,–,4,4,4,>512,>512,–,–,68.37,>512,>512,MBC (E. coli (ATCC CRM 8739); read-out: MBC): >512 µM; MIC (E. coli (ATCC CRM 8739); read-out: MIC): >512 µM
FLPKIIGKLSSLLPKIF-NH2 [Temporin-PKE-3K],2,2,4,16,4,4,4,8,4,2,2,2,4,–,–,2,2,87.47,64,32,MBC (E. coli (ATCC BAA-2340)): 2 µM; MIC (E. coli (ATCC BAA-2340)): 2 µM; HC50 (horse red blood cells): 87.47 µM
